Converted amounts (≈) assume the structure as drawn. Read-outs that look alike come from different tables or passages of the source. Marks after values point to notes of the source that are not given here.
Tests used:
[1] = system: skin wounds infected by Streptococcus and Staphylococcus; assay: Treatment of infected wounds, human volunteers; format: in vivo; settings: 0.1% ointment for 3 days
Method: Human volunteers suffering from skin wounds infected by Streptococcus and Staphylococcus were treated with 0.1% Compounds (1) and (2) in an ointment base of vaseline, sheep fat, and sulfoxide.

[2] = system: Salmonella typhimurium museum strain 727; assay: Impregnated agar serial double dilutions; settings: meat peptone agar
[3] = system: Salmonella typhimurium; assay: NCCLS broth microdilution MIC/MBC; format: cell-based
[4] = system: Epidermophyton floccosum; assay: NCCLS broth macro-dilution MIC/MFC (RPMI); format: cell-based; settings: Table 10, 7 day, 30° C.
[5] = system: Pseudomonas; assay: Agar plug diffusion, zone of retardation; format: cell-based, Pseudonomas aeruginosa; settings: plug impregnated at 0.5%
[6] = system: Staphylococcus aureus; assay: Rate of kill, viable counts
[7] = system: Bacillus sp. B-575; assay: Sensitivity of strains: suppression of growth; format: cell-based; settings: Compound (1) 1.0%; antibiotics disc method; note: key: + sensitive strains; + moderately sensitive strains; − stable strains
[8] = system: E. coli; assay: MIC by solvent of formulation; settings: for MIC: Escherichia coli
[9] = system: Escherichia coli ATCC 25922; assay: NCCLS broth microdilution MIC/MBC; format: cell-based; settings: for MIC: Escherichia coli, ATCC25922, read-out: MIC
[10] = system: C. krusei RMIT 177; assay: M38-P microdilution MIC/MFC; format: cell-based; settings: 35° C.
[11] = system: Rhizopus stolonifer; assay: microbe, parasite or virus in culture; format: cell-based; settings: for MIC: Rhizopus stolonifer
[12] = system: Staphylococci epidermidis B-513; assay: Agar diffusion assay
[13] = Blood levels after single-dose oral administration, UV spectroscopy; format: in vivo, Sprague-Dawley rats; settings: for concentration at 4 h / concentration at 8 h: Sprague-Dawley, rat, serum, oral, read-out: Blood Level of Compound (1), Mean
Method: The aim of this example was to establish absorption and blood levels of Compound (1) in the rat after a single-dose, oral administration.
Sprague-Dawley rats (6 w/o, delivered 30 Jan, 2001) were acclimatized for 6 days in the Animal Facility under standardized environmental conditions (22° C. ±3° C., rel hum 30-70%, artificial light, 12 hrs light/12 hrs dark). Rats were fed a conventional laboratory diet with food and water ad lib and caged 5 rats per cage.
Compound (1) was prepared as an aqueous suspension in sterile LPW. At higher concentrations the suspension was sonicated to reduce particle size sufficiently to pass through the gavage needle.
Compound (1) suspensions and the water control were administered at approx […], in a single. One control and five treatment rats were weighed immediately before each dose administration, the dose volume calculated and the dose delivered by gavage (22 gauge stainless steel, smooth-balled end attached to a syringe).
Approximately 100-200 μL of blood (microfuge tube) was removed from the tail at 4 and 8 hours. Tails were prewarmed using a heat lamp and snipped at the tip with a large scalpel. Blood was massaged into a microfuge tube. Twenty four hour blood samples were not attempted because of the difficulty of snipping scarred tails and the distress caused to rats.
Blood was allowed to clot, centrifuged in a microfuge for 3 minutes (speed 14) and the serum separated and stored at −20° C.
Samples for treatment groups and for controls were thus pooled and a mean level of Compound (1) for each treatment group determined.
Compound (1) was extracted (x2) from serum by toluene and absorbance measured at 370 nm (Hitachi U2000). A spiked control using 100 μg/mL Compound (1) in 50% methanol/water (V/V) and untreated controls were also assayed.

[14] = system: Fusarium graminearum; assay: microbe, parasite or virus in culture; format: cell-based; settings: 48 h
[15] = system: Klebsiella pneumoniae; assay: Agar plug diffusion, zone of retardation; settings: plug impregnated at 0.5%
[16] = system: Candida albicans; assay: microbe, parasite or virus in culture; format: cell-based; settings: for MIC: Candida albicans
[17] = system: Pseudomonas aeruginosa ATCC 27853; assay: NCCLS broth microdilution MIC/MBC; format: cell-based; settings: for MIC: Pseudomonas aeruginosa, ATCC27853, read-out: MIC
[18] = system: Aspergillus fumigatus asexual exospores; assay: Sporicidal activity; format: cell-based; settings: 512 μg/mL in water+Tween-20; 24 hrs and 6 hrs
Method: Aspergillus fumigatus asexual exospores
Compound (1) in water+Tween-20® was tested for sporicidal activity up to 24 hrs.

[19] = system: E. faecalis-clinical isolate 1; assay: microbe, parasite or virus in culture; format: cell-based
[20] = system: clinical isolate of Trichomonas vaginalis; assay: microbe, parasite or virus in culture; format: cell-based
[21] = system: Aspergillus fumigatus; assay: NCCLS broth macro-dilution MIC/MFC (RPMI); format: cell-based; settings: Table 10, 7 day, 30° C.
[22] = system: Salmonella paratyphi M-16469; assay: Agar diffusion assay; format: cell-based
[23] = before exposure, MHB, read-out: Standard MIC Initial

With C/C(=C\c1ccc2c(c1)OCO2)[N+](=O)[O-] [Compound (1)] the “clearing of infected wound” value [1] was “cleared the wound completely of pus”, the “Minimal % Compound (1) giving complete inhibition of test culture” value [2] was 0.5% and the MIC ([3]; Salmonella enterica, TYPHIMURIUM, 24 h) was 256 µg/mL (≈ 1240 µM). The MMC ([3]; Table 9, 35° C., 24 hours) was over 512 µg/mL, the MIC ([4]; Epidermophyton floccosum, 168 h) was 0.5 µg/mL (≈ 2.41 µM) and the MMC [4] was 16 µg/mL. The “Size of zone of retardation of the growth” value [5] was 0, the “Log reduction in viable count” value ([6]; 256 μg/mL, in 6 h) was 0.5 in 6 h and the “Log reduction in viable count” value ([6]; 512 μg/mL, in 9 h) was 4 in 9 h. For the same molecule, the “Suppression of Growth (+/−)” value [7] was “+”, the “times more active in ethanol than in DMSO” value [8] was “at least 8 times” and the MIC ([8]; 2.5% DMSO) was over 512 µg/mL. The MIC ([8]; formulated in ethanol (0.06% ETON)) was 128 µg/mL (≈ 618 µM), the MIC ([9]; Table 9, 35° C., 24 hours) was over 512 µg/mL and the MIC ([9]; Table 17, 2 or 3 replicates) was over 512 µg/mL. It also gave an MMC ([9]; Table 9, 35° C., 24 hours) of over 512 µg/mL, an MMC ([9]; Table 17, 2 or 3 replicates) of over 512 µg/mL and an MIC ([10]; Pichia kudriavzevii, RMIT177, Table 16, 24 h, read-out: MIC) of 4 µg/mL (≈ 19.3 µM). The MMC ([10]; Table 16, 24 h) was 4 µg/mL, the MIC ([11]; Table 20, […], after 12 weeks continuous exposure, read-out: MIC Final) was 16 µg/mL (≈ 77.2 µM) and the MIC ([11]; Table 20, […], parent strain, read-out: MIC Initial) was 4 µg/mL (≈ 19.3 µM). For the same molecule, the MIC [11, 23] was 4 µg/mL (≈ 19.3 µM), the “7-Day MIC Range” value ([11]; to Wk 5) was 4-32 to Wk 5 μg/mL and the “Diameter of zone of Growth inhibition” value ([12]; Concentration in disc 0.1%) was 32# mm. For the same molecule, the “Diameter of zone of Growth inhibition” value ([12]; Concentration in disc 1.0%) was 34# mm, the “Diameter of zone of Growth inhibition” value ([12]; Concentration in disc 2.0%) was 38# mm and the “Blood Level of Compound (1), Mean” value ([13]; 1250 mg/kg, 4 + 8 h) was 27 µg/mL. It also gave a concentration at 4 h ([13]; 500 mg/kg, 500 mg/kg fasted) of 12000 ng/mL, a concentration at 8 h ([13]; 500 mg/kg, 500 mg/kg fasted) of 14000 ng/mL and a concentration at 4 h ([13]; 500 mg/kg, 500 mg/kg fed) of 8000 ng/mL. The concentration at 8 h ([13]; 500 mg/kg, 500 mg/kg fed) was 17000 ng/mL, the concentration at 4 h ([13]; 1000 mg/kg, 1000 mg/kg fasted) was 26000 ng/mL and the concentration at 8 h ([13]; 1000 mg/kg, 1000 mg/kg fasted) was 21000 ng/mL. The “oral dose reaching the blood” value ([13]; absorption from the gastrointestinal tract) was “approximately 2%”, the MIC ([14]; Fusarium graminearum) was 4 µg/mL (≈ 19.3 µM) and the MMC ([14]; Table 16, M38-P, 35° C.) was 8 µg/mL. The “Size of zone of retardation of the growth” value [15] was 5, the MIC ([16]; after 12 weeks continuous exposure, read-out: Standard MIC Final) was 4 µg/mL (≈ 19.3 µM) and the MIC [16, 23] was 4 µg/mL (≈ 19.3 µM). The “7-Day MIC Range” value ([16]; Range to Week 12, No Rising Trend) was 16 to 64 µg/mL, the MIC ([17]; Table 9, 35° C., 24 hours) was over 512 µg/mL and the MIC ([17]; Table 17, 2 or 3 replicates) was over 512 µg/mL. The MMC ([17]; Table 9, 35° C., 24 hours) was over 512 µg/mL, the MMC ([17]; Table 17, 2 or 3 replicates) was over 512 µg/mL and the sporicidal activity [18] was “killed A. fumigatus exospores at 24 hrs but not 6 hrs”. It also gave an MMC [19] of 32 µg/mL, an MMC ([19]; 35° C., 24 hours) of 32 µg/mL and an MIC ([19]; Enterococcus faecalis, 35° C., 24 hours) of 32 µg/mL (≈ 154 µM). For the same molecule, the MMC [20] was 4 µg/mL, the MIC ([20]; Trichomonas vaginalis, 24 h) was 4 µg/mL (≈ 19.3 µM) and the MIC ([21]; Aspergillus fumigatus, 168 h) was 8 µg/mL (≈ 38.6 µM). The MMC [21] was 32 µg/mL, the “Diameter of zone of Growth inhibition” value ([22]; Concentration in disc 0.1%) was 28# mm and the “Diameter of zone of Growth inhibition” value ([22]; Concentration in disc 1.0%) was 30# mm. For the same molecule, the “Diameter of zone of Growth inhibition” value ([22]; Concentration in disc 2.0%) was 36# mm.

— US20150258059A1, “ANTIMICROBIAL AND RADIOPROTECTIVE COMPOUNDS” (BioDiem, Ltd, priority 2001, published 2015)
